Source: PubChem BioAssay AID1919007 (Molecular Pharmacology Branch, DTP, NCI, 2023)

Test system: A498 complex spheroids with HUVEC/MSC, growth
Assay: Anticancer human tumor A498 cell line growth inhibition [AhR];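 note: seven day exposure starting three days after spheroid seeding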;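 for viability, T/C: luminescence signal used as a surrogate for viable cells; luminescence viability scaled so 100% equals DMSO vehicle wells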
Conditions: for IC50: curve of first compound; for viability, T/C: stronger effect = lower value; active = viability on the fitted dose curve at most 10% of control; inactive = the rest
Description: Multicellular complex tumor spheroid response to aryl hydrocarbon receptor antagonists in combination with a variety of drugs and investigational agents in selected tumor cell lines
The current study was undertaken to assess response to aryl hydrocarbon receptor antagonists in combination with standard-of-care drugs and investigational agents in solid tumor complex spheroid models. Complex spheroids include a stromal component modeled by human endothelial cells (HUVEC) and fibroblasts modeled by human mesenchymal stem cells (MSCs). The concentration ranges selected for each drug and investigational agent were based upon clinically achievable concentrations if the clinical Cmax of the agent was known.
Compounds. The drugs and investigational agents: BAY 2416964 (NSC825713), GNF351 (NSC835774), CH-223191 (NSC835775), CPI-455 (NSC825282), aza-TdCyd (NSC777586), decitabine (NSC127716), belinostat (NSC758774), entinostat (NSC756642), pevonedistat (NSC761192), tazemetostat (NSC777109), talazoparib (NSC765396), olaparib (NSC753686), selinexor (NSC780203), nedisertib (M3814, NSC802822), bortezomib (NSC756655), venetoclax (NSC766270), doxorubicin (NSC123127), elimusertib (BAY189344, NSC800525), ceralasertib (AZD6738, NSC777638), TAK-243 (NSC785004), alisertib (NSC759677), etoposide (NSC141540), topotecan (NSC609699), eribulin (NSC707389), gemcitabine (NSC613327), carboplatin (NSC241240), cisplatin (NSC119875), and SN-38 (NSC673596) were obtained from the National Cancer Institute (NCI) Developmental Therapeutics Program Chemical Repository (32). The FDA-approved anticancer drug set is available from the Developmental Therapeutics Program at https://dtp.cancer.gov/organization/dscb/obtaining/available plates.htm. […] The stock solutions were prepared in dimethyl sulfoxide (DMSO, Sigma-Aldrich, St. Louis, MO, cat. D2650), except for the platinum compounds which were prepared in saline (Quality Biological, Gaithersburg, MD, cat. 114-055-101), at 800-fold the tested concentration and stored at -70 degrees C prior to their use. All drugs and investigational agents were tested over a range starting from a high concentration at or near the clinical Cmax and decreasing in half-log increments. If the clinical Cmax for an agent had not been determined, the highest concentration tested was 10 microM (Table 1).
Cell Culture. All cells were maintained in an incubator at 37 degrees C and 5% CO2 with 95% humidity. The PDC lines were cultured according to standard operating procedures established by the NCI PDMR (https://pdmr.cancer.gov). Briefly, all PDCs were thawed and cultured in Matrigel-coated flasks prepared with a working solution of 1X Ham's F-12 nutrient mix, without supplementation (Invitrogen, Waltham, MA, cat. 11765054), 100 U/mL penicillin-streptomycin (Invitrogen, cat. 15140122), and 2.5% Matrigel (Corning Inc., Corning, NY, cat. 354248) for the first three passages. All PDCs were cultured in complete DMEM/F-12 media containing advanced DMEM/F-12 (Invitrogen, cat. 12634028), 4.9% defined fetal bovine serum, heat inactivated (HyClone Laboratories Inc., Logan, UT, cat. SH30070.03HI), 389 ng/mL hydrocortisone (Sigma-Aldrich, cat. H4001), 9.7 ng/mL human EGF recombinant protein (Invitrogen, cat. PHG0313), 23.4 microg/mL adenine (Sigma-Aldrich, cat. A2786), 97.3 U/mL penicillin-streptomycin (Invitrogen, cat. 15140122), 1.9 mM L-glutamine (Invitrogen, cat. 25030081), and 9.7 microM Y-27632 dihydrochloride (Tocris Bioscience, Bristol, United Kingdom, cat. 1254). The PDCs were cultured in complete DMEM/F12 media without 10 microM Y-27632 dihydrochloride for at least two passages prior to the screen. The established cell lines NCI-H1341 and […] were cultured in DMEM/F-12, HEPES (Invitrogen, cat. 11330032), 5% defined fetal bovine serum (HyClone Laboratories Inc., cat. SH30070.03), ITS premix universal culture supplement [insulin (5 microg/mL), transferrin (5 microg/mL), and selenious acid (5 ng/mL)] […]

[1] = second compound 0.1 µM, first compound 0.0316 µM
[2] = second compound 0.1 µM, first compound 0.1 µM
[3] = second compound 0.1 µM, first compound 0.316 µM
[4] = second compound 0.1 µM, first compound 1 µM
[5] = second compound 0.1 µM, first compound 3.16 µM
[6] = second compound 0.1 µM, first compound 10 µM
[7] = second compound 0.316 µM, first compound 0.0316 µM
[8] = second compound 0.316 µM, first compound 0.1 µM
[9] = second compound 0.316 µM, first compound 0.316 µM
[10] = second compound 0.316 µM, first compound 1 µM
[11] = second compound 0.316 µM, first compound 3.16 µM
[12] = second compound 0.316 µM, first compound 10 µM
[13] = second compound 1 µM, first compound 0.0316 µM
[14] = second compound 1 µM, first compound 0.1 µM
[15] = second compound 1 µM, first compound 0.316 µM
[16] = second compound 1 µM, first compound 1 µM
[17] = second compound 1 µM, first compound 3.16 µM
[18] = second compound 1 µM, first compound 10 µM
[19] = second compound 3.16 µM, first compound 0.0316 µM
[20] = second compound 3.16 µM, first compound 0.1 µM
[21] = second compound 3.16 µM, first compound 0.316 µM
[22] = second compound 3.16 µM, first compound 1 µM
[23] = second compound 3.16 µM, first compound 3.16 µM
[24] = second compound 3.16 µM, first compound 10 µM
[25] = second compound 10 µM, first compound 0.0316 µM
[26] = second compound 10 µM, first compound 0.1 µM
[27] = second compound 10 µM, first compound 0.316 µM
[28] = second compound 10 µM, first compound 1 µM
[29] = second compound 10 µM, first compound 3.16 µM
[30] = second compound 10 µM, first compound 10 µM

CC(C)CC(NC(=O)C(Cc1ccccc1)NC(=O)c1cnccn1)B(O)O (stereo not given) + CC(CO)NC(=O)c1cc(-c2ccc(Cl)cc2)nn(-c2cnn(C)c2)c1=O
2.95 nM: IC50 (second compound 0.1 µM)
inactive: viability, T/C (second compound 0.1 µM, first compound 0.000949 µM) 91.1% | viability, T/C (second compound 0.1 µM, first compound 0.003 µM) 49.4% | viability, T/C (second compound 0.316 µM, first compound 0.000949 µM) 90% | viability, T/C (second compound 0.316 µM, first compound 0.003 µM) 52.6% | viability, T/C (second compound 1 µM, first compound 0.000949 µM) 87.2% | viability, T/C (second compound 1 µM, first compound 0.003 µM) 45.8% | viability, T/C (second compound 3.16 µM, first compound 0.000949 µM) 79.4% | viability, T/C (second compound 3.16 µM, first compound 0.003 µM) 37.6% | viability, T/C (second compound 10 µM, first compound 0.000949 µM) 65.7% | viability, T/C (second compound 10 µM, first compound 0.003 µM) 29.6%
2.67 nM: IC50 (second compound 1 µM)
2.13 nM: IC50 (second compound 3.16 µM)
3.2 nM: IC50 (second compound 0.316 µM)
1.57 nM: IC50 (second compound 10 µM)
active: viability, T/C (second compound 0.1 µM, first compound 0.00949 µM) 3.71% | viability, T/C (second compound 0.1 µM, first compound 0.03 µM) 0.58% | viability, T/C (second compound 0.1 µM, first compound 0.0949 µM) 2.33% | viability, T/C (second compound 0.1 µM, first compound 0.3 µM) 1.23% | viability, T/C (second compound 0.316 µM, first compound 0.00949 µM) 4.62% | viability, T/C (second compound 0.316 µM, first compound 0.03 µM) 1.25% | viability, T/C (second compound 0.316 µM, first compound 0.0949 µM) 0.46% | viability, T/C (second compound 0.316 µM, first compound 0.3 µM) 1.14% | viability, T/C (second compound 1 µM, first compound 0.00949 µM) 4.69% | viability, T/C (second compound 1 µM, first compound 0.03 µM) 1.75% | viability, T/C (second compound 1 µM, first compound 0.0949 µM) 1.82% | viability, T/C (second compound 1 µM, first compound 0.3 µM) 2.86% | viability, T/C (second compound 3.16 µM, first compound 0.00949 µM) 5.03% | viability, T/C (second compound 3.16 µM, first compound 0.03 µM) 1.11% | viability, T/C (second compound 3.16 µM, first compound 0.0949 µM) 3.08% | viability, T/C (second compound 3.16 µM, first compound 0.3 µM) 0.24% | viability, T/C (second compound 10 µM, first compound 0.00949 µM) 4.31% | viability, T/C (second compound 10 µM, first compound 0.03 µM) 0.81% | viability, T/C (second compound 10 µM, first compound 0.0949 µM) 2.81% | viability, T/C (second compound 10 µM, first compound 0.3 µM) 0.32%

Nc1ccccc1NC(=O)c1ccc(CNC(=O)OCc2cccnc2)cc1 + CC(CO)NC(=O)c1cc(-c2ccc(Cl)cc2)nn(-c2cnn(C)c2)c1=O
active: viability, T/C [6] 1.98% | viability, T/C [12] 2.07% | viability, T/C [24] 1.92% | viability, T/C [30] 0.8%
963 nM: IC50 (second compound 0.1 µM)
703 nM: IC50 (second compound 3.16 µM)
322 nM: IC50 (second compound 10 µM)
799 nM: IC50 (second compound 0.316 µM)
766 nM: IC50 (second compound 1 µM)
inactive: viability, T/C [1] 89.4% | viability, T/C [2] 88.8% | viability, T/C [3] 77.7% | viability, T/C [4] 44.6% | viability, T/C [5] 24.5% | viability, T/C [7] 79.5% | viability, T/C [8] 85.8% | viability, T/C [9] 74% | viability, T/C [10] 39.5% | viability, T/C [11] 23.2% | viability, T/C [13] 75% | viability, T/C [14] 75% | viability, T/C [15] 78.5% | viability, T/C [16] 39.2% | viability, T/C [17] 23% | viability, T/C [18] 4.91% | viability, T/C [19] 64.5% | viability, T/C [20] 73.8% | viability, T/C [21] 71.4% | viability, T/C [22] 38.1% | viability, T/C [23] 20.2% | viability, T/C [25] 58.2% | viability, T/C [26] 53.1% | viability, T/C [27] 55.1% | viability, T/C [28] 28.7% | viability, T/C [29] 14.5%

O=C(c1cc(Cc2n[nH]c(=O)c3ccccc23)ccc1F)N1CCN(C(=O)C2CC2)CC1 + CC(CO)NC(=O)c1cc(-c2ccc(Cl)cc2)nn(-c2cnn(C)c2)c1=O
inactive: viability, T/C [1] 105% | viability, T/C [2] 93.3% | viability, T/C [3] 102% | viability, T/C [4] 84.6% | viability, T/C [5] 94.6% | viability, T/C [6] 85.3% | viability, T/C [7] 97% | viability, T/C [8] 106% | viability, T/C [9] 99.9% | viability, T/C [10] 81.2% | viability, T/C [11] 87.4% | viability, T/C [12] 81.7% | viability, T/C [13] 99% | viability, T/C [14] 96.6% | viability, T/C [15] 94.6% | viability, T/C [16] 77.9% | viability, T/C [17] 87.2% | viability, T/C [18] 79.9% | viability, T/C [19] 91.3% | viability, T/C [20] 81.7% | viability, T/C [21] 83.5% | viability, T/C [22] 77.2% | viability, T/C [23] 79% | viability, T/C [24] 70.3% | viability, T/C [25] 71.7% | viability, T/C [26] 67.6% | viability, T/C [27] 69.1% | viability, T/C [28] 61.6% | viability, T/C [29] 64.1% | viability, T/C [30] 62%
> 10000 nM: IC50 (second compound 0.1 µM) | IC50 (second compound 0.316 µM) | IC50 (second compound 1 µM) | IC50 (second compound 3.16 µM) | IC50 (second compound 10 µM)
